Marks after values point to notes of the source that are not given here.
Experiments:
human TLR7 = target: T1, human TLR7 (Homo sapiens, UniProt Q9NYK1); assay: TLR7 wild type NFκB-luc cellular reporter assay; format: cell-based; design: unit not given here; conditions: for TLR7-wt (LEC): second part of table
T1 construct: expressed in transfected cells; host or cells: HEK293
T1 sequence (Q9NYK1 27-1049): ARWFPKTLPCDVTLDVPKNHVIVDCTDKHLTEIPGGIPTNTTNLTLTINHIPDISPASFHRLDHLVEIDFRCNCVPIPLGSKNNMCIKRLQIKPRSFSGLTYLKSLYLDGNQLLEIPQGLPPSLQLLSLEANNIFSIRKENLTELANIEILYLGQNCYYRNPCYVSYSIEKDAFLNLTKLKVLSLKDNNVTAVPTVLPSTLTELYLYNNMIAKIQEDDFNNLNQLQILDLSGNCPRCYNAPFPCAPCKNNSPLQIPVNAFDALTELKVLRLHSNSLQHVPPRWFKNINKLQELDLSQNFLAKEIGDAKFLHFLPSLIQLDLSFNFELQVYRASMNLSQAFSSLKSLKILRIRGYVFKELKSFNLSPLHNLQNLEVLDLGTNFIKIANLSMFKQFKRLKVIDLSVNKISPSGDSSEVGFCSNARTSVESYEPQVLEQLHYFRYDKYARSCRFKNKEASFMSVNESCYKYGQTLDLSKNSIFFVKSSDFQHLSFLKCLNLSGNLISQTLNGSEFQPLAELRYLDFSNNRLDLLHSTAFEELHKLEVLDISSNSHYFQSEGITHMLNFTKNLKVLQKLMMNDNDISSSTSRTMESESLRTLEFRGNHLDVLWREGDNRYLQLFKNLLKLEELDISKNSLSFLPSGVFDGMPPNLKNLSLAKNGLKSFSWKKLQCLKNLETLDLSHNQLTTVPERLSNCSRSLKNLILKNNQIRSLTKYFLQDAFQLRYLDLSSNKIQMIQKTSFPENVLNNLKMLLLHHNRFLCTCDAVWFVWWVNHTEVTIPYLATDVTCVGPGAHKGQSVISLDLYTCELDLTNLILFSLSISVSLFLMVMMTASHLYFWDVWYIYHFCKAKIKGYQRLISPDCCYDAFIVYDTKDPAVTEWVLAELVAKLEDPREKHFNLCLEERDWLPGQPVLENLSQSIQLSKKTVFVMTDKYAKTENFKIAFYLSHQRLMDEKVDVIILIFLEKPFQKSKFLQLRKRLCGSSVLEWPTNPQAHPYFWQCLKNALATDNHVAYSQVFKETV
Method: (§1) The ability of compounds to activate human TLR7 and/or TLR8 was assessed in a cellular reporter assay using HEK293 cells transiently transfected with a TLR7 or TLR8 expression vector and NFκB-luc reporter construct. In one instance the TLR expression construct expresses the respective wild type sequence or a mutant sequence comprising a deletion in the second leucine-rich repeat of the TLR.
Briefly, HEK293 cells were grown in culture medium (DMEM supplemented with 10% FCS and 2 mM Glutamine). For transfection of cells in 10 cm dishes, cells were detached with Trypsin-EDTA, transfected with a mix of CMV-TLR7 or TLR8 plasmid (750 ng), NFκB-luc plasmid (375 ng) and a transfection reagent and incubated 24 hours at 37° C. in a humidified 5% CO2 atmosphere. Transfected cells were then detached with Trypsin-EDTA, washed in PBS and resuspended in medium to a density of 1.67×10^5 cells/mL. Thirty microliters of cells were then dispensed into each well in 384-well plates, where 10 μL of compound in 4% DMSO was already present. […] Dose response curves were generated from measurements performed in quadruplicates. Lowest effective concentrations (LEC) values, defined as the concentration that induces an effect which is at least two fold above the standard deviation of the assay, were determined for each compound.

[1] = tested on: human TLR7 mutant (dIRR2); assay: TLR7 mutant (deletion in second leucine-rich repeat) NFκB-luc cellular reporter assay; format: cell-based; design: unit not given here; conditions: HEK293 NFκB-luc reporter, mutant TLR7, 6 hours incubation
Method: as §1
Briefly, HEK293 cells were grown in culture medium (DMEM supplemented with 10% FCS and 2 mM Glutamine). For transfection of cells in 10 cm dishes, cells were detached with Trypsin-EDTA, transfected with a mix of CMV-TLR7 or TLR8 plasmid (750 ng), NFκB-luc plasmid (375 ng) and a transfection reagent and incubated 24 hours at 37° C. in a humidified 5% CO2 atmosphere. Transfected cells were then detached with Trypsin-EDTA, washed in PBS and resuspended in medium to a density of 1.67×10^5 cells/mL. Thirty microliters of cells were then dispensed into each well in 384-well plates, where 10 μL of compound in 4% DMSO was already present. Following 6 hours incubation at 37° C., 5% CO2, the luciferase activity was determined by adding 15 μl of Steady Lite Plus substrate (Perkin Elmer) to each well and readout performed on a ViewLux ultraHTS microplate imager (Perkin Elmer). Dose response curves were generated from measurements performed in quadruplicates. Lowest effective concentrations (LEC) values, defined as the concentration that induces an effect which is at least two fold above the standard deviation of the assay, were determined for each compound.

[2] = HEK293 NFκB-luc reporter, 6 hours incubation

SMILES | TLR7-wt (LEC) (human TLR7; [2]) | other results
CCCC[C@@H](CCO)Nc1nc(N)nc2cc(OC)c(OC)cc12 [Compound 3] |  | TLR7-wt_LEC (human TLR7; Assay run at 48 hours): 4.0 *; TLR7-dIRR2_LEC [1]: 0.9
CCCCNc1nc(N)nc2cc(OC)c(OC)cc12 [Compound 1] |  | TLR7-wt_LEC (human TLR7; HEK293 NFκB-luc reporter, 6 hours incubation, lowest effective concentration): 5.0; TLR7-dIRR2_LEC [1]: 0.4
CCC[C@@H](CCO)Nc1nc(N)nc2cc(F)ccc12 [Compound 64] | 0.11 | 
CCC[C@@H](CO)Nc1nc(N)nc2cccc(C)c12 [Compound 46] | 0.77 | 
CCC[C@@H](CO)Nc1nc(N)nc2ccc(OC)cc12 [Compound 57] | 10.77 | 
CCC[C@@H](CO)Nc1nc(N)nc2cccc(Cl)c12 [Compound 71] | 1.02 | 
CCC[C@@H](CO)Nc1nc(N)nc2c(C)cccc12 [Compound 43] | 4.54 | 
CCC[C@@H](CCO)Nc1nc(N)nc2ccc(Oc3ccc(C(F)(F)F)cc3)cc12 [Compound 29] | 11.13 | 

— patent US8916575B2, “Quinazoline derivatives for the treatment of viral infections and further diseases” (Janssen R&D Ireland, priority 2011, dated 2014)
